Assay results from patent US20090137517A1, “SENSITIZING A CELL TO CANCER TREATMENT BY MODULATING THE ACTIVITY OF A NUCLEIC ACID ENCODING RPS27L PROTEIN” (Agency for Science, Technology and Research, priority 2006, published 2009).

Tests used:
Assay type in all cases: cell-based, human
[1] = tested on: HCT116 cells; assay: Alkaline single cell gel electrophoresis (comet) assay; details: RPS27L-depleted versus control HCT116 cells, ADR 24 h
Experimental: In order to examine DNA damage directly, the comet assay was used next. […] Cells were incubated with ADR for 24 h and were harvested and processed for the comet assay.
The treated cells were subjected to a single cell gel electrophoresis (comet) assay as described earlier (Poonepalli, A., Balakrishnan, L., et al. (2005), supra) and stained with SYBR green dye. The tail moment of the comets was generated using the Metasystems (Germany) analysis software ‘Comet imager version 1.2’. Fifty randomly chosen comets were analyzed per sample. The extent of DNA damage observed was expressed as tail moment, which corresponded to the fraction of the DNA in the tail of the comet.

[2] = tested on: p53 and its downstream targets p21, puma and MDM2; assay: Immunoblot of p53 and its targets in control and RPS27L-depleted HCT116 cells; details: RPS27L-depleted versus control HCT116 cells
Experimental: (§1) As RPS27L depletion sensitizes only p53 wild-type cells to DNA damage, the inventors next assessed the effect of RPS27L loss on p53 signaling pathway. The effects of RPS27L depletion on p53 and its downstream targets p21, puma and MDM2 was examined by immunoblot analysis. […] By contrast, p53-dependent activation of Puma and MDM2 were not decreased upon RPS27L loss.
(§2) Cells were harvested and lysed with RIPA buffer (50 mM Tris-HCl, pH7.4, 1 mM EDTA, 150 mM NaCl, 1% Nonidet P-40, 0.5% sodium deoxycholate and proteinase inhibitors). The lysates were clarified by centrifugation at 16,000×g for 15 minutes at 4° C. Protein concentrations were determined with the Bradford Protein Assay Kit (Bio-Rad). 20-50 μg protein samples were separated by SDS-PAGE, transferred onto an Immobilon membrane (Millipore) and blotted with antibodies. Anti-p53 and anti-p21 antibodies were from Santa Cruz; anti-MDM2 and anti-Puma antibodies were from Merck. The rabbit polyconal antibody to RPS27L was raised against a 14 amino acid peptide from human RPS27L (SEQ ID NO: 2: LHPSLEEEKKKHKK).

[3] = tested on: p53 and p21; assay: Western blot of p53 and p21 protein levels in HCT116 cells; details: ADR (1 μM), 5-FU (375 μM), nutlin-3 (10 μM)
Experimental: (§3) To investigate whether the p53-induced increase in RPS27L mRNA also gives rise to the increased protein levels, immunoblot analysis of p53 wild-type and p53 null HCT116 cells treated with ADR, 5-FU or nutlin-3, a small molecule MDM2 antagonist that directly activates p53 (Vassilev, L. T., Vu, B. T., et al. (2004) “In vivo activation of the p53 pathway by small-molecule antagonists of MDM2” Science, vol. 303, p. 844-848) was performed. […] To extend this observations to other cell lines and to other p53 stimuli, U2OS (human osteosarcoma cell line) and SH-SY5Y (human neuroblastoma cell line) cells (p53 wild type) as well as Saos-2 cells (human osteosarcoma cell line, p53-deficient) were treated with ADR, etoposide phosphate (VP16®) and 5-FU (FIG. 2B). […] Obviously, 5-FU treatment activates a posttranslational mechanism that causes RPS27L protein downregulation in spite of the increased mRNA expression.
as §2

[4] = tested on: p21; assay: Immunoblot of p21 in U2OS cells with transient RPS27L knockdown; details: RPS27L knocked down by transient transfection, ADR (1 μM) 24 hours
Experimental: as §1, §2

[5] = tested on: RPS27L protein; assay: Western blot of RPS27L protein in U2OS, SH-SY5Y and Saos-2 cells; details: U2OS and SH-SY5Y (p53 wild type), Saos-2 (p53-deficient); VP16 (10 μM), ADR (1 μM), 5-FU (375 μM)
Experimental: as §3, §2

[6] = tested on: RPS27L mRNA; assay: RT-PCR of RPS27L mRNA after drug treatment of HCT116 cells; details: p53 wild-type HCT116 cells; ADR (1 μM) or 5-FU (375 μM); not in p53 null cells
Description: FIG. 1A depicts the microarray analysis showing a set of genes whose expression was induced by the DNA damaging agents adriamycin (ADR) and 5-fluorouracil (5-FU) in p53 wild-type HCT116 cells (human colorectal carcinoma cell line containing wild type p53) but not in the p53 null counterpart. In both treatments, RPS27L, together with bona fide p53 targets such as cdkn1a (encodes p21), Pmaid (encodes Noxa) and ccd3 (encodes Puma), was unregulated in a p53-dependent manner. To validate the microarray data, RT-PCR analysis was performed (FIG. 1B).
The human colon carcinoma cell line HCT116 and its p53 knock-out derivate cells were kindly provided by Dr. Bert Vogelstein. HCT116 cells can also be purchased under the ATCC number: CCL 247. The human osteosarcoma cell lines U2OS and Saos-2 can be purchased under the following ATCC numbers: U2OS, ATCC HTB-96; Saos-2, ATCC HTB-85 and SH-SY5Y, ATCC CRL-2266. Cells were grown in DMEM supplemented with 10% fetal bovine serum and penicillin-streptomycin (Invitrogen). Adriamycin, etoposide phosphate (VP16®) and 5-fluorouracil were purchased from Sigma-Aldrich.
All RT-PCR was performed using the Titanium One Step RT-PCR Kit (BD Clontech).

[7] = tested on: HCT116 cells; assay: JC-1 staining, mitochondrial membrane potential by flow cytometry; details: control HCT116 cells, ADR treatment
Experimental: To further define the nature of this cell death response the inventors used another assay, namely flow cytometric detection of cells stained with JC-1. The JC-1-staining identifies cell death events as a result of loss of mitochondria membrane potential (ΔΨm).
(§4) Cells cycle analysis was performed by DNA content quantification. The cells were fixed with 70% ethanol and stained with propidium iodide (50 μg/ml) staining. The stained cells were analyzed by FACScalibur (BD Bioscience). For the BrdU incorporation assay and mitochondrial membrane potential detection, the BrdU Flow Kit and JC-1 staining kit (both from BD Bioscience) were used, respectively, following the instruction manual. Stained cells were analyzed by FACScalibur (BD Bioscience) and quantified by using CellQuest software (BD Bioscience).

[8] = tested on: HCT116 cells; assay: Cell cycle and apoptosis analysis by flow cytometry (sub-G1 DNA content)
Experimental: as §4

**Q.** What does the source list for `COc1cccc2c1C(=O)c1c(O)c3c(c(O)c1C2=O)C[C@@](O)(C(=O)CO)C[C@@H]3O[C@H]1C[C@H](N)[C@H](O)[C@H](C)O1` [ADR, adriamycin]?
**A.** DNA damage (comet tail moment) [1]: significantly enhanced; p53-dependent activation of Puma and MDM2 ([2]; ADR (1 μM)): not decreased; effect of RPS27L depletion on ADR-induced p53 activation ([2]; ADR (1 μM) 24 and 48 hours): no significant effect; p21 accumulation in response to ADR ([2]; ADR (1 μM) 24 and 48 hours): significant reduced; p53 and p21 protein [3]: accumulation of p53 and p21; p21 protein level [4]: substantial decrease; RPS27L protein level [5]: p53-dependent upregulation of RPS27L protein; RPS27L mRNA [6]: induced; percentage of cells with lower membrane potential (ΔΨm) [7]: 13.5%; cell cycle and apoptosis response ([8]; HCT116 p53+/+ and p53−/−, ADR (1 μM) or 5-FU (375 μM) for 48 h): p53-dependent cell cycle arrest; cell death (sub-G1 DNA content) ([8]; RPS27L depletion in p53 null HCT116 cells, ADR 48 h): did not give rise to the same result; cellular response ([8]; p53 wild-type HCT116 expressing control shRNA, ADR 48 h): growth arrest response
